Usually inhibition stands for the relative decrease from the control value, in per cent.

The values that follow come from patent US4731470A, “[(5,6-dichloro-3-oxo-2,9a-alkano-2,3,9,9a-tetrahydro-1H-fluoren-7-yl)oxy] alkanoic acids and alkanimidamides” (Merck & Co., Inc., priority 1986, dated 1988).

The subject of assay [1] is cat cerebrocortical tissue slices. The assay is described as follows: In vitro cat cerebrocortical tissue slice assay (HCO3^- -stimulated tissue swelling). The format is cell-based. The settings on record: Felis catus, read-out: percentage inhibition of tissue swelling (% Inhib.). As to the method:
Using the in vitro cat cerebrocortical tissue slice assay, described in Example 1, compounds of the present invention can be tested for activity. This test provides the principal in vitro evaluation and consists of a determination of concentration vs. response curve. The addition of HCO3^- to isotonic, K^+ -rich saline-glucose incubation media is known to specifically stimulate the transport of Cl^- coupled with Na^+ and an osmotic equivalent of water in incubating slices of mammalian cerebral cortex. […] After addition of drug to the incubation media, detailed drug concentration-response curves are then obtained. The data are expressed as percent HCO3^- -stimulated swelling vs. drug concentration, from which the concentration of drug providing 50% inhibition of HCO3^- -stimulated swelling (I50 in molarity) is interpolated.
Adult cats of 2-3 kg body weight are employed in tissue slice studies. Prior to sacrifice, the animals are anesthetized with ketamine hydrochloride (Ketaset), 10 mg/kg intramuscularly. Eight (three control, five experimental) pial surface cerebrocortical tissue slices (0.5-mm thick; approximately 150 mg initial fresh weight) are cut successively with a calibrated Stadie-Riggs fresh tissue microtome without moistening and weighed successively on a torsion balance. During the slice preparation all operations except weighing are confined to a humid chamber. Each slice is rapidly placed in an individual Warburg flask containing 2 ml of incubation medium at room temperature. The basic composition of the incubation media, in millimoles per liter, is as follows: glucose, 10; CaCl2, 1.3; MgSO4, 1.2; KHSO4, 1.2; Hepes (N-2-hydroxyethylpiperazine-N'-2-ethanesulfonic acid, titrated with NaOH to pH 7.4), 20. Except when adding HCO3^-, the osmolarity of the media is maintained isosmotic (approximately 285 mOsm/L) by reciprocal changes of Na^+ or K^+ to achieve a concentration of K^+ of 27 mM. The basic medium was saturated with oxygen by bubbling pure oxygen through the solution for 30 minutes before use. […]
Following the 60-minute incubation period, tissue slices are separated from incubation medium by filtration, reweighed, and homogenized in 1N HClO4 (10% w/v) for electrolyte analysis. […] Control slice swelling is expressed as microliters per gram initial preswelling fresh weight. The effectiveness of an inhibitor at a given concentration is measured by the amount of HCO3^- -stimulated swelling that occurred in its presence, computed as a percent of the maximum possible. Tissue and media Na^+ and K^+ levels are determined by emission flame photometry with Li^+ internal standard; Cl^- levels are determined by amperometric titration. Tissue viability during incubation is monitored by manometry.

The test system of assay [2] is animals receiving experimental in vivo head injury. The settings on record: cited from earlier work.
The next assay relates to astroglial edema. The settings on record: cited from earlier work.
For assay [3], the system named is clinical cases of head injury. The settings on record: cited from earlier work.

Take `O=C(O)COc1cc2c(c(Cl)c1Cl)C1=CC(=O)C3CCCC1(C2)C3` (racemic) [Example 2, [(5,6-Dichloro-3-oxo-2,9a-propano-2,3,9,9a-tetrahydro-1H-fluoren-7-yl)oxy]acetic acid]: the inhibition at 1 µM in assay [1] (conc. 10^-6 M) stood at 81%. Moreover, in assay [1] (conc. 10^-7 M), the inhibition at 0.1 µM was 54%. In addition, the inhibition at 0.01 µM in assay [1] (conc. 10^-8 M) amounted to 29%. Further, the inhibition at 0.001 µM in assay [1] (conc. 10^-9 M) came out at 10%.
As for `C=C(CC)C(=O)c1ccc(OCC(=O)O)c(Cl)c1Cl` [ethacrynic acid], the “activity in in vivo assays” value in assay [2] is “exhibited activity”. In addition, the “activity in in vitro assays” value in the assay with astroglial edema is recorded as “exhibited activity”. The “reducing mortality in clinical cases of head injury” value in assay [3] is “effective in reducing mortality”.
